From PubChem BioAssay AID1963961 (Molecular Pharmacology Branch, DTP, NCI, 2024)

Tested on: K98450-129-R-PDC multicell spheroids, viability
Test: Anticancer human tumor K98450-129-R-PDC patient-derived colon adenocarcinoma cell line growth inhibition [PI3K]
Settings: for IC50: curve of first compound; for viability, T/C: stronger effect = lower value
Summary of the method: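 Tumor cells grown as multi-cell spheroids with HUVEC endothelial cells and MSC fibroblast-like stroma were treated with targeted agents combined with inavolisib, alpelisib, duvelisib or copanlisib. Doses fell in half-log steps from near clinical Cmax, else from 10 microM. Viability was measured.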

[1] = second compound 0.0316 µM, first compound 0.0316 µM
[2] = second compound 0.0316 µM, first compound 0.1 µM
[3] = second compound 0.0316 µM, first compound 0.316 µM
[4] = second compound 0.0316 µM, first compound 1 µM
[5] = second compound 0.0316 µM, first compound 3.16 µM
[6] = second compound 0.0316 µM, first compound 10 µM
[7] = second compound 0.1 µM, first compound 0.0316 µM
[8] = second compound 0.1 µM, first compound 0.1 µM
[9] = second compound 0.1 µM, first compound 0.316 µM
[10] = second compound 0.1 µM, first compound 1 µM
[11] = second compound 0.1 µM, first compound 3.16 µM
[12] = second compound 0.1 µM, first compound 10 µM
[13] = second compound 0.316 µM, first compound 0.0316 µM
[14] = second compound 0.316 µM, first compound 0.1 µM
[15] = second compound 0.316 µM, first compound 0.316 µM
[16] = second compound 0.316 µM, first compound 1 µM
[17] = second compound 0.316 µM, first compound 3.16 µM
[18] = second compound 0.316 µM, first compound 10 µM
[19] = second compound 1 µM, first compound 0.0316 µM
[20] = second compound 1 µM, first compound 0.1 µM
[21] = second compound 1 µM, first compound 0.316 µM
[22] = second compound 1 µM, first compound 1 µM
[23] = second compound 1 µM, first compound 3.16 µM
[24] = second compound 1 µM, first compound 10 µM
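Note: spheroids exposed to agents for seven days before read-out.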

SMILES: C=CC(=O)N1CCN(c2nc(=O)n(-c3c(C)ccnc3C(C)C)c3nc(-c4c(O)cccc4F)c(F)cc23)C(C)C1 (centres undefined) + CC(Nc1ccc2c(c1)OCCn1cc(N3C(=O)OCC3C(F)F)nc1-2)C(N)=O
- IC50 (second compound 0.00316 µM): 3.53 µM
- IC50 (second compound 0.01 µM): 3.98 µM
- IC50 (second compound 0.0316 µM): 3.99 µM
- IC50 (second compound 0.1 µM): 3.02 µM
- IC50 (second compound 0.316 µM): 2.2 µM
- IC50 (second compound 1 µM): 1.87 µM
- viability, T/C (second compound 0.00316 µM, first compound 0.0316 µM): 108%
- viability, T/C (second compound 0.00316 µM, first compound 0.1 µM): 92.8%
- viability, T/C (second compound 0.00316 µM, first compound 0.316 µM): 95.1%
- viability, T/C (second compound 0.00316 µM, first compound 1 µM): 76.7%
- viability, T/C (second compound 0.00316 µM, first compound 3.16 µM): 50.8%
- viability, T/C (second compound 0.00316 µM, first compound 10 µM): 31.1%
- viability, T/C (second compound 0.01 µM, first compound 0.0316 µM): 108%
- viability, T/C (second compound 0.01 µM, first compound 0.1 µM): 95.8%
- viability, T/C (second compound 0.01 µM, first compound 0.316 µM): 110%
- viability, T/C (second compound 0.01 µM, first compound 1 µM): 83.8%
- viability, T/C (second compound 0.01 µM, first compound 3.16 µM): 56.5%
- viability, T/C (second compound 0.01 µM, first compound 10 µM): 28.9%
- viability, T/C [1]: 107%
- viability, T/C [2]: 97.7%
- viability, T/C [3]: 95.5%
- viability, T/C [4]: 79.7%
- viability, T/C [5]: 54.1%
- viability, T/C [6]: 31%
- viability, T/C [7]: 92.4%
- viability, T/C [8]: 100%
- viability, T/C [9]: 94.8%
- viability, T/C [10]: 82.8%
- viability, T/C [11]: 48.8%
- viability, T/C [12]: 24.9%
- viability, T/C [13]: 88.7%
- viability, T/C [14]: 97.7%
- viability, T/C [15]: 107%
- viability, T/C [16]: 75.4%
- viability, T/C [17]: 39.3%
- viability, T/C [18]: 25.2%
- viability, T/C [19]: 85.6%
- viability, T/C [20]: 92.1%
- viability, T/C [21]: 83.7%
- viability, T/C [22]: 67%
- viability, T/C [23]: 35.8%
- viability, T/C [24]: 19%

SMILES: CC(Cn1ccc(-c2ccc(C#N)c(Cl)c2)n1)NC(=O)c1cc(C(C)O)[nH]n1 (centres undefined) + CC(Nc1ncnc2nc[nH]c12)c1cc2cccc(Cl)c2c(=O)n1-c1ccccc1
- IC50 (second compound 0.0316 µM): > 10 µM
- IC50 (second compound 0.1 µM): > 10 µM
- IC50 (second compound 0.316 µM): > 10 µM
- IC50 (second compound 1 µM): > 10 µM
- IC50 (second compound 3.16 µM): > 10 µM
- IC50 (second compound 10 µM): > 10 µM
- viability, T/C [1]: 119%
- viability, T/C [2]: 101%
- viability, T/C [3]: 87.3%
- viability, T/C [4]: 92.5%
- viability, T/C [5]: 102%
- viability, T/C [6]: 101%
- viability, T/C [7]: 106%
- viability, T/C [8]: 113%
- viability, T/C [9]: 107%
- viability, T/C [10]: 96.5%
- viability, T/C [11]: 98.5%
- viability, T/C [12]: 103%
- viability, T/C [13]: 99.5%
- viability, T/C [14]: 109%
- viability, T/C [15]: 92.5%
- viability, T/C [16]: 92.3%
- viability, T/C [17]: 104%
- viability, T/C [18]: 99%
- viability, T/C [19]: 94.7%
- viability, T/C [20]: 95.2%
- viability, T/C [21]: 91.7%
- viability, T/C [22]: 99.1%
- viability, T/C [23]: 93.4%
- viability, T/C [24]: 88%
- viability, T/C (second compound 3.16 µM, first compound 0.0316 µM): 72.7%
- viability, T/C (second compound 3.16 µM, first compound 0.1 µM): 86.1%
- viability, T/C (second compound 3.16 µM, first compound 0.316 µM): 86.7%
- viability, T/C (second compound 3.16 µM, first compound 1 µM): 80.3%
- viability, T/C (second compound 3.16 µM, first compound 3.16 µM): 103%
- viability, T/C (second compound 3.16 µM, first compound 10 µM): 84%
- viability, T/C (second compound 10 µM, first compound 0.0316 µM): 84.1%
- viability, T/C (second compound 10 µM, first compound 0.1 µM): 87.4%
- viability, T/C (second compound 10 µM, first compound 0.316 µM): 83%
- viability, T/C (second compound 10 µM, first compound 1 µM): 88.7%
- viability, T/C (second compound 10 µM, first compound 3.16 µM): 81.8%
- viability, T/C (second compound 10 µM, first compound 10 µM): 84.8%
